In assay [1] the test system is common cutworm (Spodoptera Litura). Nature of the assay: Insecticidal effect on common cutworm (Test Example 2). To be noted: 500 ppm, 25° C.; for Insecticidal effect, Test Example 2: common cutworm second-instar larvae, cabbage leaf immersed, eight days after inoculation; for Insecticidal effect (Test Example 2), judged from mortality: cabbage leaf dip, second-instar larvae of common cutworm, 8 days after inoculation. The format is in vivo. As for the experimental part: Insecticidal effect on common cutworm (Spodoptera Litura)
After air-drying, it was placed in a plastic Petri dish with a diameter of 9 cm and inoculated with second-instar larvae of common cutworm, after which the dish was closed and then allowed to stand in a room thermostated at 25° C. Eight days after the inoculation, the dead and alive were counted. The mortality was calculated according to the following equation and the insecticidal effect was judged according to the criterion shown in Test Example 1. The test was carried out with triplicate groups of 10 insects. [formula]

The subject of assay [2] is diamondback moth (Plutella xylostella). Nature of the assay: Insecticidal effect on diamondback moth (Test Example 1). The format is in vivo. To be noted: diamondback moth; for Insecticidal effect, Test Example 1: mortality judged by criterion of Test Example 1; for Insecticidal effect (Test Example 1), judged from mortality: judged by the criterion of Test Example 1. An outline of the steps:
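Eggs laid by adult moths on Chinese cabbage seedlings, which were immersed in test solution, air-dried and kept at 25 °C. Hatched insects counted 6 days after immersion and mortality calculated, with effect graded by criterion; triplicate groups of 10 insects.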

`CCN(CC)C(=O)c1c(OC(F)(F)F)cccc1C(=O)Nc1ccc(OC(F)(F)F)cc1C` [compound 1235]: the “Insecticidal effect, Test Example 2” value in assay [1] is listed as “D (79-50)”. Further, the “Insecticidal effect, Test Example 1” value in assay [2] is reported as “A (100)”.
The like results for `Cc1cc(C(F)(C(F)(F)F)C(F)(F)F)ccc1NC(=O)c1cccc(OC(F)(F)F)c1C(=O)NC(C)C` [compound 1236] were, in that order, “A (100)” and “A (100)”.
The like results for `Cc1cc(C(F)(C(F)(F)F)C(F)(F)F)ccc1NC(=O)c1cccc(OC(F)(F)F)c1C(=O)NC(C)(C)C` [compound 1237] were, in that order, “A (100)” and “A (100)”.
For `Cc1cc(C(F)(F)C(F)(F)F)ccc1NC(=O)c1cccc(C#N)c1C(=O)NC(C)C` [compound 1245], the “Insecticidal effect, Test Example 2” value in assay [1] is recorded as “A (100)”. In assay [2], the “Insecticidal effect, Test Example 1” value was “A (100)”.
As to `Cc1cc(C(F)(F)C(F)(F)F)ccc1NC(=O)c1ccc(F)c(Cl)c1C(=O)NC(C)(C)C` [compound 1257], in assay [1], the “Insecticidal effect, Test Example 2” value was “A (100)”. Besides, in assay [2], the “Insecticidal effect, Test Example 1” value is “A (100)”.
As to `CCN(CC)C(=O)c1c(C(=O)Nc2ccc(C(F)(F)C(F)(F)F)cc2C)ccc(F)c1Cl` [compound 1258], the “Insecticidal effect, Test Example 2” value in assay [1] is on record as “A (100)”. Further, the “Insecticidal effect, Test Example 1” value in assay [2] is “A (100)”.
As to `CCN(CC)C(=O)c1c(C(=O)Nc2ccc(OC(F)(F)F)cc2C)ccc(F)c1Cl` [compound 1261], the “Insecticidal effect, Test Example 2” value in assay [1] was “A (100)”. In addition, in assay [2], the “Insecticidal effect, Test Example 1” value is “A (100)”.
For `Cc1cc(OC(F)F)ccc1NC(=O)c1cccc(Cl)c1C(=O)N[C@@H](C)c1ccccc1` [compound 1459], in assay [1], the “Insecticidal effect (Test Example 2), judged from mortality” value is given as “A (100)”. For the same compound, in assay [2], the “Insecticidal effect (Test Example 1), judged from mortality” value is on record as “A (100)”.
Turning to `O=C(Nc1ccc(C(F)(F)C(F)(F)F)cc1F)c1cccc(Cl)c1C(=O)NCc1ccccc1` [compound 1486], in assay [1], the “Insecticidal effect (Test Example 2), judged from mortality” value was “A (100)”. Moreover, the “Insecticidal effect (Test Example 1), judged from mortality” value in assay [2] was “A (100)”.
For `O=C(Nc1ccc(C(F)(F)C(F)(F)F)cc1Cl)c1cccc(Cl)c1C(=O)NCc1ccccc1` [compound 1487], the “Insecticidal effect (Test Example 2), judged from mortality” value in assay [1] was “A (100)”. The “Insecticidal effect (Test Example 1), judged from mortality” value in assay [2] is given as “A (100)”.
In the case of `Cc1cc(C(F)(F)C(F)(F)F)ccc1N(C)C(=O)c1cccc(Cl)c1C(=O)NC(C)c1ccccc1` (stereo not drawn) [compound 1554], the “Insecticidal effect (Test Example 2), judged from mortality” value in assay [1] is “A (100)”. In addition, in assay [2], the “Insecticidal effect (Test Example 1), judged from mortality” value is given as “A (100)”.
Take `CC(C)NC(=O)c1c(Cl)cccc1C(=O)Nc1cc2c(cc1F)OC(F)(F)O2` [compound 1594]: the “Insecticidal effect (Test Example 2), judged from mortality” value in assay [1] was “A (100)”. In assay [2], the “Insecticidal effect (Test Example 1), judged from mortality” value is on record as “A (100)”.
`CC(C)NC(=O)c1c(I)cccc1C(=O)Nc1cc2c(cc1F)OC(F)(F)O2` [compound 1595]: the “Insecticidal effect (Test Example 2), judged from mortality” value in assay [1] is on record as “A (100)”. Further, in assay [2], the “Insecticidal effect (Test Example 1), judged from mortality” value is given as “A (100)”.
`CC(C)(C)NC(=O)c1c(I)cccc1C(=O)Nc1cc2c(cc1F)OC(F)(F)O2` [compound 1596]: the “Insecticidal effect (Test Example 2), judged from mortality” value in assay [1] is “A (100)”. In addition, the “Insecticidal effect (Test Example 1), judged from mortality” value in assay [2] is reported as “A (100)”.
Consider `Cc1cc(OC(F)(F)F)ccc1NC(=O)c1cccc(I)c1C(=O)NC(C)(C)CBr` [compound 1605], for which the “Insecticidal effect (Test Example 2), judged from mortality” value in assay [1] is given as “C (89-80)”. For the same compound, the “Insecticidal effect (Test Example 1), judged from mortality” value in assay [2] is on record as “A (100)”.
The like results for `Cc1cc(C(F)(F)C(F)(F)F)ccc1NC(=O)c1cccc(I)c1C(=O)N[C@@H](C)CBr` [compound 1606] were, in that order, “A (100)” and “A (100)”.
For `Cc1cc(C(F)(F)C(F)(F)F)ccc1NC(=O)c1cccc(I)c1C(=O)N[C@H](C)CBr` [compound 1607], in assay [1], the “Insecticidal effect (Test Example 2), judged from mortality” value is on record as “A (100)”. Also, the “Insecticidal effect (Test Example 1), judged from mortality” value in assay [2] is reported as “A (100)”.
For `CC(C)NC(=O)c1c(I)cccc1C(=O)Nc1ccc(C(F)(F)C(F)(F)F)c(Cl)c1` [compound 1608], the “Insecticidal effect (Test Example 2), judged from mortality” value in assay [1] is listed as “A (100)”. Also, in assay [2], the “Insecticidal effect (Test Example 1), judged from mortality” value is on record as “A (100)”.
`CC(C)(C)NC(=O)c1c(I)cccc1C(=O)Nc1ccc(C(F)(F)C(F)(F)F)c(Cl)c1` [compound 1609]: the “Insecticidal effect (Test Example 2), judged from mortality” value in assay [1] is “A (100)”. In addition, in assay [2], the “Insecticidal effect (Test Example 1), judged from mortality” value was “A (100)”.
Consider `Cc1cc(C(F)(F)C(F)(F)F)c(C)cc1NC(=O)c1cccc(I)c1C(=O)NC(C)C` [compound 1610], for which the “Insecticidal effect (Test Example 2), judged from mortality” value in assay [1] is recorded as “A (100)”. Further, the “Insecticidal effect (Test Example 1), judged from mortality” value in assay [2] is listed as “A (100)”.
As to `Cc1c(NC(=O)c2cccc(I)c2C(=O)NC(C)C)ccc(C(F)(F)C(F)(F)F)c1C` [compound 1612], in assay [1], the “Insecticidal effect (Test Example 2), judged from mortality” value is listed as “A (100)”. Moreover, the “Insecticidal effect (Test Example 1), judged from mortality” value in assay [2] is recorded as “A (100)”.
Regarding `Cc1c(NC(=O)c2cccc(I)c2C(=O)NC(C)(C)C)ccc(C(F)(F)C(F)(F)F)c1C` [compound 1613], the “Insecticidal effect (Test Example 2), judged from mortality” value in assay [1] was “A (100)”. Further, the “Insecticidal effect (Test Example 1), judged from mortality” value in assay [2] was “A (100)”.
Turning to `CCN(CC)C(=O)c1c(I)cccc1C(=O)Nc1ccc(-c2ccc(C(F)(F)F)cc2)cc1C` [compound 1619], the “Insecticidal effect (Test Example 2), judged from mortality” value in assay [1] is “A (100)”. The “Insecticidal effect (Test Example 1), judged from mortality” value in assay [2] is reported as “A (100)”.
For the compound `CC(C)NC(=O)c1c(I)cccc1C(=O)Nc1cc2c(cc1I)OC(F)(F)O2` [compound 1660], in assay [1], the “Insecticidal effect (Test Example 2), judged from mortality” value was “A (100)”. Moreover, the “Insecticidal effect (Test Example 1), judged from mortality” value in assay [2] is “A (100)”.
Regarding `COc1cc(C(F)(F)C(F)(F)F)ccc1NC(=O)c1cccc(I)c1C(=O)NC(C)(C)C` [compound 1662], the “Insecticidal effect (Test Example 2), judged from mortality” value in assay [1] is “A (100)”. In addition, the “Insecticidal effect (Test Example 1), judged from mortality” value in assay [2] was “A (100)”.
With `Cc1cc(C(F)(C(F)(F)F)C(F)(F)F)c(F)cc1NC(=O)c1cccc(I)c1C(=O)NC(C)C` [compound 1663], the “Insecticidal effect (Test Example 2), judged from mortality” value in assay [1] is on record as “A (100)”. In addition, the “Insecticidal effect (Test Example 1), judged from mortality” value in assay [2] is reported as “A (100)”.
As to `Cc1cc(C(F)(C(F)(F)F)C(F)(F)F)c(F)cc1NC(=O)c1cccc(I)c1C(=O)NC(C)(C)C` [compound 1664], the “Insecticidal effect (Test Example 2), judged from mortality” value in assay [1] is “A (100)”. For the same compound, the “Insecticidal effect (Test Example 1), judged from mortality” value in assay [2] is “A (100)”.
Turning to `Cc1cc(C(F)(C(F)(F)F)C(F)(F)F)c(Cl)cc1NC(=O)c1cccc(I)c1C(=O)NC(C)C` [compound 1665], the “Insecticidal effect (Test Example 2), judged from mortality” value in assay [1] is “A (100)”. In addition, the “Insecticidal effect (Test Example 1), judged from mortality” value in assay [2] is “A (100)”.
For `Cc1cc2c(cc1NC(=O)c1cccc(I)c1C(=O)NC(C)C)OC(F)(F)C2(F)F` [compound 1666], the “Insecticidal effect (Test Example 2), judged from mortality” value in assay [1] is “A (100)”. Further, the “Insecticidal effect (Test Example 1), judged from mortality” value in assay [2] is given as “A (100)”.
With `Cc1cc(C(F)(C(F)(F)F)C(F)(F)F)ccc1NC(=O)c1cccc(I)c1C(=O)NC(C)C` [compound 1667], the “Insecticidal effect (Test Example 2), judged from mortality” value in assay [1] is “A (100)”. For the same compound, in assay [2], the “Insecticidal effect (Test Example 1), judged from mortality” value is “A (100)”.
As to `Cc1cc(C(F)(C(F)(F)F)C(F)(F)F)ccc1NC(=O)c1cccc(I)c1C(=O)NC(C)(C)C` [compound 1668], the “Insecticidal effect (Test Example 2), judged from mortality” value in assay [1] is “A (100)”. Moreover, the “Insecticidal effect (Test Example 1), judged from mortality” value in assay [2] is “A (100)”.
On to `CC(C)NC(=O)c1c(I)cccc1C(=O)Nc1ccc(C(F)(C(F)(F)F)C(F)(F)F)cc1F` [compound 1669], for which the “Insecticidal effect (Test Example 2), judged from mortality” value in assay [1] is “A (100)”. Also, in assay [2], the “Insecticidal effect (Test Example 1), judged from mortality” value is on record as “A (100)”.
As for `CC(C)(C)NC(=O)c1c(I)cccc1C(=O)Nc1ccc(C(F)(C(F)(F)F)C(F)(F)F)cc1F` [compound 1670], in assay [1], the “Insecticidal effect (Test Example 2), judged from mortality” value was “A (100)”. Moreover, in assay [2], the “Insecticidal effect (Test Example 1), judged from mortality” value is “A (100)”.
With `CSc1cc(C(F)(C(F)(F)F)C(F)(F)F)ccc1NC(=O)c1cccc(I)c1C(=O)NC(C)C` [compound 1671], the “Insecticidal effect (Test Example 2), judged from mortality” value in assay [1] is listed as “A (100)”. Further, the “Insecticidal effect (Test Example 1), judged from mortality” value in assay [2] was “A (100)”.
For `CSc1cc(C(F)(C(F)(F)F)C(F)(F)F)ccc1NC(=O)c1cccc(I)c1C(=O)NC(C)(C)C` [compound 1672], the “Insecticidal effect (Test Example 2), judged from mortality” value in assay [1] is given as “A (100)”. Besides, the “Insecticidal effect (Test Example 1), judged from mortality” value in assay [2] was “A (100)”.
Turning to `CC(C)NC(=O)c1c(I)cccc1C(=O)Nc1ccc2oc(C(F)(F)F)nc2c1Cl` [compound 1682], in assay [1], the “Insecticidal effect (Test Example 2), judged from mortality” value is listed as “A (100)”. Moreover, the “Insecticidal effect (Test Example 1), judged from mortality” value in assay [2] is recorded as “A (100)”.
Regarding `CC(C)NC(=O)c1c(I)cccc1C(=O)Nc1cc2c(cc1Br)OC(F)(F)C(F)O2` (stereo not drawn) [compound 1684], the “Insecticidal effect (Test Example 2), judged from mortality” value in assay [1] is “A (100)”. Besides, the “Insecticidal effect (Test Example 1), judged from mortality” value in assay [2] is given as “A (100)”.
Regarding `Cc1c(NC(=O)c2cccc(I)c2C(=O)NC(C)C)ccc(C(F)(C(F)(F)F)C(F)(F)F)c1C` [compound 1689], in assay [1], the “Insecticidal effect (Test Example 2), judged from mortality” value was “A (100)”. The “Insecticidal effect (Test Example 1), judged from mortality” value in assay [2] is “A (100)”.
As for `Cc1c(NC(=O)c2cccc(I)c2C(=O)NC(C)(C)C)ccc(C(F)(C(F)(F)F)C(F)(F)F)c1C` [compound 1690], the “Insecticidal effect (Test Example 2), judged from mortality” value in assay [1] is listed as “A (100)”. In assay [2], the “Insecticidal effect (Test Example 1), judged from mortality” value was “A (100)”.

Source of the values: patent US6362369B1, “Phthalic acid diamide derivatives fluorine-containing aniline compounds as starting material, agricultural and horticultural insecticides, and a method for application of the insecticides” (Nihon Nohyaku Co., Ltd., priority 1997, dated 2002).
